Data from patent US5629430A, “Trifluoromethylpyrroloindolecarboxylic acid ester and process for production thereof” (Kyorin Pharmaceutical Co., Ltd., priority 1992, dated 1997).
In brackets after ≈: the same amount, converted by molar mass. Like-named read-outs stand apart in the source and are kept apart here.

How the values were obtained:
[1] = test system: P388 mouse leukemia cells; assay: Activity against tumor cell growth (P388, MTT, 72 h); assay type: cell-based; conditions: read-out: IC50 (50% growth inhibition concentration)
How it was run: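 P388 cells at 1.5×10^5 cells/ml in RPMI1640 with 10% FBS, 2 mM glutamine and 5 μM 2-hydroxyethyldisulfide; DMSO-dissolved compound diluted in medium, 72 h at 37 °C, 5% CO2. MTT added for 3 h, formazan dissolved in HCl-isopropanol, A540 read. IC50 from absorbance ratio versus untreated cells.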

P388 cells = assay: Antineoplastic activity, mice having P388 cells transplanted in abdominal cavity; assay type: in vivo, mouse (female, CDF1 strain); conditions: next day after transplantation, >=130% effective
Protocol: (§1) The test compound was dissolved in dimethylsulfoxide, and the solution was adequately diluted with 10% Emulfore EL620(produced by Rhone Poulenc Co.) to prepare the test compound solution. The antineoplastic activity was evaluated as below.
To the abdominal cavity of a female mouse (CDF1 strain, 8 to 9 week age), 1×10^6 P388 cells were transplanted. Next day, the test medicine solution was injected intraperitonealy in a single dose. Five to eight mice were employed for the solvent-dosed control group, and two mice were employed for each of the dosed groups. The antineoplastic effect was evaluated by the ratio (T/C, %) of the average survival days of the dosed group (T) to the average survival days of the solvent-dosed control group(C). The T/C ratio of 130% or more is evaluated to be effective.
"Cured": Survived for 60 days or longer

Colon-26 cells = assay: Antineoplastic activity, mice having Colon-26 cells transplanted subcutaneously; assay type: in vivo, mouse (female, CDF1 strain); conditions: Mus musculus, Colon 26, iv, 168 h, read-out: T/C (average tumor weight, dosed vs. solvent-dosed control); for response vs control in vivo at 0.5 mg/kg: i.v. 0.5 mg/kg single dose on sixth day
Protocol: as §1
To the lateral region of a female mouse (CDF1 strain, 8 to 12 week age), 1×10^6 Colon-26 cells were transplanted subcutaneously. On the sixth day after the transplantation, the test medicine solution-was injected into the tail vein in a single dose. Seven to twelve mice were employed for the solvent-dosed control group, and five mice were employed for the dosed group. One week after the dosage, the tumor was cut out, and the weight thereof was measured. The antineoplastic effect was evaluated by the ratio (T/C) of the average tumor weight of the dosed group (T) to the average tumor weight of the solvent-dosed control group (C).

Sarcoma-180 cells = assay: Antineoplastic activity, mice having Sarcoma-180 cells transplanted subcutaneously; assay type: in vivo, mouse (female, CDR strain); conditions: Mus musculus, Sarcoma-180, iv, 144 h, tumor weighed six days after dosage, read-out: T/C (average tumor weight, dosed vs. solvent-dosed control); for response vs control in vivo at 0.5 mg/kg: i.v. 0.5 mg/kg single dose; for response vs control in vivo at 0.25 mg/kg: i.v. 0.25 mg/kg single dose
Protocol: as §1
To the lateral region of a female mouse (CDR strain, 5 to 6 week age), 3.6×10^6 to 5×10^6 Sarcoma-180 cells were transplanted subcutaneously. Next day, the test medicine solution was injected into the tail vein in a single dose. Eight to twelve mice were employed for the solvent-dosed control group, and five mice were employed for the dosed group. Six days after the dosage, the tumor was cut out, and the weight thereof was measured. The antineoplastic effect was evaluated by the ratio (T/C) of the average tumor weight of the dosed group (T) to the average tumor weight of the solvent-dosed control group (C).

[2] = P388 mouse leukemia cells, 72 h, 37° C., MTT
[3] = tumor weighed one week after dosage
[4] = i.v. 0.25 mg/kg single dose on sixth day, tumor weighed one week after dosage

With COC(=O)c1c(C(F)(F)F)[nH]c2c(O)cc3c(c12)C(CCl)CN3C(=O)c1cc2cc(OC)c(OC)c(OC)c2[nH]1 (stereo not shown) [Example 6, methyl 1-chloromethyl-5-hydroxy-7-trifluoromethyl-3-(5,6,7-trimethoxy-1H-indol-2-ylcarbonyl)-1,2,3,6-tetrahydropyrrolo[3,2-e]indole-8-carboxylate] the IC50 [1, 2] was 0.24 ng/mL (≈ 0.412 nM) and the “T/C (average survival days, dosed vs. solvent-dosed control)” value (P388 cells; i.p. 0.5 mg/kg single dose) was 206%.

In the case of COC(=O)c1c(C(F)(F)F)[nH]c2c(O)cc3c(c12)C(CCl)CN3C(=O)c1cc2cc(OC)ccc2[nH]1 (stereo not shown) [Example 8, Methyl 1-chloromethyl-5-hydroxy-3-(5-methoxy-1H-indol-2-ylcarbonyl)-7-trifluoromethyl-1,2,3,6-tetrahydropyrrolo[3,2-e]indole-8-carboxylate], the IC50 [1, 2] is reported as 0.21 ng/mL (≈ 0.402 nM) and the “T/C (average survival days, dosed vs. solvent-dosed control)” value (P388 cells; i.p. 1.0 mg/kg single dose) is reported as 198%.

COC(=O)c1c(C(F)(F)F)[nH]c2c(O)cc3c(c12)C(CCl)CN3C(=O)c1cc2cc(NC(=O)c3cc4ccccc4o3)ccc2[nH]1 (stereo not shown) [Example 10, Methyl 3-[5-[(benzofuran-2-ylcarbonyl)amino]-1H-indol-2-ylcarbonyl]-1-chloromethyl-5-hydroxy-7-trifluoromethyl-1,2,3,6-tetrahydropyrrolo[3,2-e]indole-8-carboxylate] gave an IC50 [1, 2] of 0.52 ng/mL (≈ 0.799 nM), a response vs control in vivo at 0.5 mg/kg (Colon-26 cells; [3]) of 15% and a response vs control in vivo at 0.5 mg/kg (Sarcoma-180 cells) of 15%.

COC(=O)c1c(C(F)(F)F)[nH]c2c(O)cc3c(c12)C(CCl)CN3C(=O)c1cc2cc(-c3cc4ccccc4o3)ccc2[nH]1 (stereo not shown) [Example 12] showed a response vs control in vivo at 1 mg/kg (Colon-26 cells; i.v. 1.0 mg/kg single dose on sixth day, tumor weighed one week after dosage) of 16% and a response vs control in vivo at 1 mg/kg (Sarcoma-180 cells; i.v. 1.0 mg/kg single dose) of 11%.

COC(=O)c1c(C(F)(F)F)[nH]c2c(O)cc3c(c12)C(CCl)CN3C(=O)c1cc2cc(NC(=O)c3cc4cc(OC)c(OC)c(OC)c4[nH]3)ccc2[nH]1 (stereo not shown) [Example 13, Methyl 1-chloromethyl-5-hydroxy-7-trifluoromethyl-3-[5-[(5,6,7-trimethoxy-1H-indol-2-ylcarbonyl)amino]-1H-indol-2-ylcarbonyl]-1,2,3,6-tetrahydropyrrolo[3,2-e]indole-8-carboxylate] was tested, and the IC50 [1, 2] was 0.21 ng/mL (≈ 0.284 nM), the response vs control in vivo at 0.25 mg/kg (Colon-26 cells; [4]) was 17% and the response vs control in vivo at 0.25 mg/kg (Sarcoma-180 cells) was 11%.

COC(=O)c1c(C(F)(F)F)[nH]c2c(O)cc3c(c12)C(CCl)CN3C(=O)c1cc2cc(NC(=O)c3cc4c(OC)c(OC)c(OC)cc4[nH]3)ccc2[nH]1 (stereo not shown) [Example 14, Methyl 1-chloromethyl-5-hydroxy-7-trifluoromethyl-3-[5-[(4,5,6-trimethoxy1H-indol-2-ylcarbonyl)amino]-1H-indol-2-ylcarbonyl]-1,2,3,6-tetrahydropyrrolo[3,2-e]indole-8-carboxylate] showed an IC50 [1, 2] of 0.1 ng/mL (≈ 0.135 nM), a response vs control in vivo at 0.5 mg/kg (Colon-26 cells; [3]) of 5% and a response vs control in vivo at 0.5 mg/kg (Sarcoma-180 cells) of 7%.

COC(=O)c1c(C(F)(F)F)[nH]c2c(O)cc3c(c12)C(CCl)CN3C(=O)c1cc2cc(NC(=O)c3cnc4ccccc4c3)ccc2[nH]1 (stereo not shown) [Example 16, Methyl 1-chloromethyl-5-hydroxy-3-[5-[(quinoline-3-ylcarbonyl)amino]-1H-indol-2-ylcarbonyl]-7-trifluoromethyl-1,2,3,6-tetrahydropyrrolo[3,2-e]indole-8-carboxylate] showed an IC50 [1, 2] of 0.16 ng/mL (≈ 0.242 nM), a response vs control in vivo at 0.5 mg/kg (Colon-26 cells; [3]) of 16% and a response vs control in vivo at 0.5 mg/kg (Sarcoma-180 cells) of 17%.

Work on COC(=O)c1c(C(F)(F)F)[nH]c2c(O)cc3c(c12)C(CCl)CN3C(=O)c1cc2cc(NC(=O)c3cc4ccccc4cn3)ccc2[nH]1 (stereo not shown) [Example 17, Methyl 1-chloromethyl-5-hydroxy-3-[5-[(isoquinolin-3-ylcarbonyl)amino]-1H-indol-2-ylcarbonyl]-7trifluoromethyl-1,2,3,6-tetrahydropyrrolo[3,2-e]indole-8-carboxylate] yielded an IC50 [1, 2] of 0.09 ng/mL (≈ 0.136 nM), a response vs control in vivo at 0.25 mg/kg (Colon-26 cells; [4]) of 18% and a response vs control in vivo at 0.25 mg/kg (Sarcoma-180 cells) of 25%.

In the case of COC(=O)c1c(C(F)(F)F)[nH]c2c(O)cc3c(c12)C(CCl)CN3C(=O)c1cc2cc(NC(=O)c3cc4c(OC)c(OC)c(OC)cc4cn3)ccc2[nH]1 (stereo not shown) [Example 18, Methyl 1-chloromethyl-5-hydroxy-7-trifluoromethyl-3-[5-[(5,6,7-trimethoxyisoquinolin-3-ylcarbonyl)amino]-1H-indol-2-ylcarbonyl]-1,2,3,6-tetrahydropyrrolo[3,2-e]indole-8-carboxylate], the IC50 [1, 2] is reported as 0.09 ng/mL (≈ 0.12 nM), the response vs control in vivo at 0.25 mg/kg (Colon-26 cells; [4]) is reported as 7% and the response vs control in vivo at 0.25 mg/kg (Sarcoma-180 cells) is reported as 25%.

COC(=O)c1c(C(F)(F)F)[nH]c2c1C13CC1CN(C(=O)c1cc4cc(OC)c(OC)c(OC)c4[nH]1)C3=CC2=O (stereo not shown) [Example 20, methyl 6-trifluoromethyl-2-(5,6,7-trimethoxy1H-indol-2-ylcarbonyl)-1,2,8,8a-tetrahydrocyclopropa[c]-pyrrolo[3,2e]indole-4 (5H)-one-7-carboxylate] showed an IC50 [1, 2] of 0.24 ng/mL (≈ 0.44 nM), a response vs control in vivo at 0.25 mg/kg (Colon-26 cells; [4]) of 15% and a response vs control in vivo at 0.25 mg/kg (Sarcoma-180 cells; *(n = 4)) of 36%. For the same compound, the “T/C (average survival days, dosed vs. solvent-dosed control)” value (P388 cells; i.p. 0.125 mg/kg single dose) was 194%.

With COC(=O)c1c(C(F)(F)F)[nH]c2c1C13CC1CN(C(=O)c1cc4cc(OC)ccc4[nH]1)C3=CC2=O (stereo not shown) [Example 22, Methyl 2-(5-methoxy-1H-indol-2-ylcarbonyl)-6-trifluoromethyl-1,2,8,8a-tetrahydrocyclopropa[c]pyrrolo[3,2-e]indole-4 (5H)-one-7-carboxylate] the IC50 [1, 2] was 0.23 ng/mL (≈ 0.474 nM) and the “T/C (average survival days, dosed vs. solvent-dosed control)” value (P388 cells; i.p. 0.125 mg/kg single dose) was 169%.

For COC(=O)c1c(C(F)(F)F)[nH]c2c(O)cc3c(c12)C(CBr)CN3C(=O)c1cc2cc(OC)c(OC)c(OC)c2[nH]1 (stereo not shown) [Example 34, methyl 1-bromomethyl-5-hydroxy-7-trifluoromethyl-3-(5,6,7-trimethoxy-1H-indol-2-ylcarbonyl)-1,2,3,6-tetrahydropyrrolo[3,2e]indole-8-carboxylate], the IC50 [1, 2] was 0.15 ng/mL (≈ 0.239 nM), the response vs control in vivo at 0.25 mg/kg (Sarcoma-180 cells) was 37% and the “T/C (average survival days, dosed vs. solvent-dosed control)” value (P388 cells; i.p. 0.125 mg/kg single dose) was 189%.

COC(=O)c1c(C(F)(F)F)[nH]c2c(O)cc3c(c12)C(CBr)CN3C(=O)c1cc2cc(NC(=O)c3cc4ccccc4[nH]3)ccc2[nH]1 (stereo not shown) [Example 36, Methyl 1-bromomethyl-5-hydroxy-3-[5-[(1H-indol-2-ylcarbonyl)amino]-1H-indol-2-ylcarbonyl)-7-trifluoromethyl-1,2,3,6-tetrahydropyrrolo[3,2-e]indole-8-carboxylate] was tested, and the IC50 [1, 2] was 1.3 ng/mL (≈ 1.87 nM), the response vs control in vivo at 0.25 mg/kg (Sarcoma-180 cells) was 14% and the “T/C (average survival days, dosed vs. solvent-dosed control)” value (P388 cells; i.p. 0.125 mg/kg single dose) was 384%.

In the case of COC(=O)c1c(C(F)(F)F)[nH]c2c(OC(=O)N3CCN(C)CC3)cc3c(c12)C(CCl)CN3C(=O)c1cc2cc(OC)c(OC)c(OC)c2[nH]1 (stereo not shown) [Example 46], the IC50 ([1]; Mus musculus, P388, 72 h) is reported as 22 ng/mL (≈ 31.1 nM) and the “T/C (average survival days, dosed vs. solvent-dosed control)” value (P388 cells; i.p. 4 mg/kg single dose) is reported as 221%.

COC(=O)c1c(C(F)(F)F)[nH]c2c(OC(=O)N3CCN(C)CC3)cc3c(c12)[C@H](CCl)CN3C(=O)c1cc2cc(NC(=O)Nc3ccc4[nH]c(C(=O)N5C[C@@H](CCl)c6c5cc(OC(=O)N5CCN(C)CC5)c5[nH]c(C(F)(F)F)c(C(=O)OC)c65)cc4c3)ccc2[nH]1 [Example 109, (S,S)-3-3'-[Carbonylbis(imino-1H-indol-5,2-dicarbonyl)]bis-[1-chloromethyl-5-(4-methylpiperazin-1-ylcarbonyl)oxy-7-trifluoromethyl-1,2,3,6-tetrahydropyrrolo[3,2-e]indole-8-carboxylic acid methyl ester]] gave an IC50 ([1]; Mus musculus, P388, 72 h) of 53 ng/mL (≈ 41 nM) and a response vs control in vivo at 0.25 mg/kg (Colon-26 cells) of 7%.
